Like-named read-outs stand apart in the source and are kept apart here.
Assay: Ex vivo biodistribution of 177Lu-labeled ligands in PC-3 tumor-bearing mice
Conditions: mouse, intravenous; for tissue uptake at 72 h: 72 h pi; for tissue uptake at 120 h: 120 h pi; for tissue uptake at 1 h: 1 h pi; for tissue uptake at 4 h: 4 h pi; for tissue uptake at 24 h: 24 h pi
Experimental: SPECT/CT imaging was conducted using an MI Labs (Houten, The Netherlands) U-SPECT-II/CT scanner with a custom-made ultra-high sensitivity big mouse collimator (2 mm pinhole size) following published procedure. The experiments were obtained in accordance with the same protocol established in the PET/CT imaging and ex vivo biodistributions section. The mice were used for SPECT/CT imaging and ex vivo biodistributions studies once the tumors reached a diameter of 5–8 mm. PC-3 tumor-bearing mice were sedated (2.5% isoflurane in O2) and injected with 31.4–36.9 MBq of the ^177Lu-labeled ligand through a lateral caudal tail vein. The mouse was imaged at 1, 4, 24, 72, and 120 h pi. At each time point, a 5 min CT scan was performed with 615 μA and 60 kV parameters for localization and attenuation, followed by two 30 min static SPECT scans in list mode with an energy window centered around 208 keV. The U-SPECT II software was used to reconstruct data, and the images were decay corrected to the time of injection with PMOD v 3.402 (PMOD Technologies GmbH, Fallanden, Switzerland).
For ex vivo biodistribution studies, the mice were injected with ~3–5 MBq of the ^177Lu-labeled ligand (n = 5). At 1, 4, 24, 72, and 120 h post-injection, the mice were anesthetized with 2% isoflurane, euthanized by CO2 inhalation, and the tissues/organs of interest were […] for radioactivity counting. The blocking study was performed at 1 h pi via co-injection of the ^177Lu-labeled ligand with 100 μg of [D-Phe^6,Leu-NHEt^13,des-Met^14]Bombesin(6–14).

[1] = heart, n = 5, read-out: Heart uptake
[2] = kidneys, n = 5, read-out: Kidneys uptake
[3] = large intestine, n = 5, read-out: Large intestine uptake
[4] = liver, n = 5, read-out: Liver uptake
[5] = lungs, n = 5, read-out: Lungs uptake
[6] = muscle, n = 5, read-out: Muscle uptake
[7] = pancreas, n = 5, read-out: Pancreas uptake
[8] = small intestine, n = 5, read-out: Small intestine uptake
[9] = spleen, n = 5, read-out: Spleen uptake
[10] = stomach, n = 5, read-out: Stomach uptake
[11] = testes, n = 5, read-out: Testes uptake

CC(C)C[C@H](NC(=O)[C@H](Cc1cnc[nH]1)N(C)C(=O)CNC(=O)[C@@H](NC(=O)[C@H](C)NC(=O)[C@H](Cc1c[nH]c2ccccc12)NC(=O)[C@H](CCC(N)=O)NC(=O)[C@@H](Cc1ccccc1)NC(=O)CN1CCC(NC(=O)CN2CCN(CC(=O)O)CCN(CC(=O)O)CCN(CC(=O)O)CC2)CC1)C(C)(C)C)C(=O)N1CC(F)(F)C[C@H]1C(N)=O [[^177Lu]Lu-LW02060, metal not drawn]
tissue uptake at 72 h [1]: 0.01 %ID/g | tissue uptake at 120 h [1]: 0.01 %ID/g | tissue uptake at 1 h (kidneys, 100 ug, blocked (100 µg GRPR antagonist co-injected), read-out: Kidneys uptake): 3.8 ± 0.85 %ID/g | tissue uptake at 1 h [2]: 3.62 ± 0.86 %ID/g | tissue uptake at 4 h [2]: 2.85 ± 0.29 %ID/g | tissue uptake at 24 h [2]: 1.06 ± 0.22 %ID/g | tissue uptake at 72 h [2]: 0.33 ± 0.03 %ID/g | tissue uptake at 120 h [2]: 0.15 ± 0.04 %ID/g | tissue uptake at 1 h (large intestine, 100 ug, blocked (100 µg GRPR antagonist co-injected), read-out: Large intestine uptake): 0.22 ± 0.04 %ID/g | tissue uptake at 1 h [3]: 0.49 ± 0.31 %ID/g | tissue uptake at 4 h [3]: 0.68 ± 0.12 %ID/g | tissue uptake at 24 h [3]: 0.43 ± 0.13 %ID/g | tissue uptake at 72 h [3]: 0.32 ± 0.14 %ID/g | tissue uptake at 120 h [3]: 0.05 ± 0.02 %ID/g | tissue uptake at 1 h (liver, 100 ug, blocked (100 µg GRPR antagonist co-injected), read-out: Liver uptake): 0.27 ± 0.03 %ID/g | tissue uptake at 1 h [4]: 0.47 ± 0.19 %ID/g | tissue uptake at 4 h [4]: 0.27 ± 0.06 %ID/g | tissue uptake at 24 h [4]: 0.14 ± 0.07 %ID/g | tissue uptake at 72 h [4]: 0.06 ± 0.01 %ID/g | tissue uptake at 120 h [4]: 0.07 ± 0.02 %ID/g | tissue uptake at 1 h (lungs, 100 ug, blocked (100 µg GRPR antagonist co-injected), read-out: Lungs uptake): 0.54 ± 0.17 %ID/g | tissue uptake at 1 h [5]: 0.57 ± 0.18 %ID/g | tissue uptake at 4 h [5]: 0.15 ± 0.04 %ID/g | tissue uptake at 24 h [5]: 0.06 ± 0.02 %ID/g | tissue uptake at 72 h [5]: 0.03 ± 0.01 %ID/g | tissue uptake at 120 h [5]: 0.02 %ID/g | tissue uptake at 1 h (muscle, 100 ug, blocked (100 µg GRPR antagonist co-injected), read-out: Muscle uptake): 0.15 ± 0.05 %ID/g | tissue uptake at 1 h [6]: 0.13 ± 0.05 %ID/g | tissue uptake at 4 h [6]: 0.05 ± 0.01 %ID/g | tissue uptake at 24 h [6]: 0.01 %ID/g | tissue uptake at 72 h [6]: 0.01 %ID/g | tissue uptake at 1 h (pancreas, 100 ug, blocked (100 µg GRPR antagonist co-injected), read-out: Pancreas uptake): 0.51 ± 0.12 %ID/g | tissue uptake at 1 h [7]: 2.64 ± 0.63 %ID/g | tissue uptake at 4 h [7]: 1.71 ± 0.08 %ID/g | tissue uptake at 24 h [7]: 1.04 ± 0.19 %ID/g | tissue uptake at 72 h [7]: 0.35 ± 0.08 %ID/g | tissue uptake at 120 h [7]: 0.11 ± 0.01 %ID/g | tissue uptake at 1 h (small intestine, 100 ug, blocked (100 µg GRPR antagonist co-injected), read-out: Small intestine uptake): 0.23 ± 0.06 %ID/g | tissue uptake at 1 h [8]: 0.67 ± 0.16 %ID/g | tissue uptake at 4 h [8]: 0.26 ± 0.04 %ID/g | tissue uptake at 24 h [8]: 0.13 ± 0.01 %ID/g | tissue uptake at 72 h [8]: 0.04 ± 0.01 %ID/g | tissue uptake at 120 h [8]: 0.02 ± 0.01 %ID/g | tissue uptake at 1 h (spleen, 100 ug, blocked (100 µg GRPR antagonist co-injected), read-out: Spleen uptake): 0.2 ± 0.06 %ID/g | tissue uptake at 1 h [9]: 0.46 ± 0.2 %ID/g | tissue uptake at 4 h [9]: 0.13 ± 0.03 %ID/g | tissue uptake at 24 h [9]: 0.09 ± 0.02 %ID/g | tissue uptake at 72 h [9]: 0.07 ± 0.02 %ID/g | tissue uptake at 120 h [9]: 0.05 ± 0.01 %ID/g | tissue uptake at 1 h (stomach, 100 ug, blocked (100 µg GRPR antagonist co-injected), read-out: Stomach uptake): 0.08 ± 0.03 %ID/g | tissue uptake at 1 h [10]: 0.29 ± 0.06 %ID/g | tissue uptake at 4 h [10]: 1.2 ± 1.55 %ID/g | tissue uptake at 24 h [10]: 0.12 ± 0.05 %ID/g | tissue uptake at 72 h [10]: 0.07 ± 0.02 %ID/g | tissue uptake at 120 h [10]: 0.03 ± 0.01 %ID/g | tissue uptake at 1 h (testes, 100 ug, blocked (100 µg GRPR antagonist co-injected), read-out: Testes uptake): 0.14 ± 0.05 %ID/g | tissue uptake at 1 h [11]: 0.18 ± 0.03 %ID/g | tissue uptake at 4 h [11]: 0.04 ± 0.01 %ID/g | tissue uptake at 24 h [11]: 0.02 %ID/g | tissue uptake at 72 h [11]: 0.02 ± 0.01 %ID/g | tissue uptake at 120 h [11]: 0.01 ± 0.01 %ID/g

From article PMC11859184, “Synthesis and Evaluation of ^68Ga- and ^177Lu-Labeled [diF-Pro^14]Bombesin(6−14) Analogs for Detection and Radioligand Therapy of Gastrin-Releasing Peptide Receptor-Expressing Cancer” (Pharmaceuticals, 2025)
